This note sets out measurements from US12590126B2, “Compounds for selective disruption of protein-protein interactions” (SyntheX, Inc., priority 2017, dated 2026).

Where a SMILES comes first, the peptide text is derived from it. Where no end group is shown, it is not given here. [ ]: non-standard residue; d: D form. The star is where a group is joined. C6_5FAM = 5-carboxyfluorescein (5FAM) label attached via a 6-carbon linker to the lysine epsilon amino group, O=C(NCCCCCC(=O)*)c1ccc2c(c1)C(=O)OC21c2ccc(O)cc2Oc2cc(O)ccc21; Dansyl = CN(C)c1cccc2c(S(=O)(=O)*)cccc12; 2Nal = N[C@@H](Cc1ccc2ccccc2c1)C(=O)O; dNle = CCCC[C@@H](N)C(=O)O; Sar = CNCC(=O)O

In one data set the test system is fresh human RBCs. In kind it is cell-based. To be noted: red cells of human, 1 h, 250. The protocol:
To assess the nonspecific lytic properties of each compounds disclosed herein, each mentioned compound was tested for hemolytic properties against fresh human RBCs. Briefly, donor blood was drawn into a K2EDTA anticoagulant tube from multiple O+ donors. The blood was washed 3 times in PBS. RBCs were diluted to 2% in PBS and compounds were added at various concentrations. Samples were incubated at 37 C for 1 hr, then centrifuged at 2200 rpm for 5 min. Supernatants were measured for absorbance at 450 nm or 405 nm. The percentage hemolysis was calculated as lysis relative to 1% Triton X-100 incubation.

For another data set, the system named is SSP-25 cells. The data set can be described thus: xCELLigence cell death assay in SSP-25 cells (cellular assay for RAD51 inhibition). In kind it is cell-based. To be noted: concentration gradient added at 20 hour mark, only values with R^>0.85 shown. Here is the method: The efficacy of the peptides described herein was assessed by their ability to cause death in SSP-25 cells, which have amplification of RAD51 and are dependent on its activity.
First, 5,000 SSP25 cells were plated, and adherence and growth was measured for 20 hours using live measurements of current impedance through the plate using the xCELLigence™ instrument. At the 20 hour mark, a concentration gradient of each compound or a PBS control was added to the SSP-25 cells, which were cultured in […] RMPI media with 10% FBS. […] Only values with confidence and R^>0.85 are shown.

On to `CCCC[C@@H](NC(=O)[C@@H](CC(C)C)NC(=O)CN(C)S(=O)(=O)c1cccc2c(N(C)C)cccc12)C(=O)N[C@H](CCCNC(=N)N)C(=O)N[C@H](CO)C(=O)N[C@@H](C(=O)N[C@H](CCCNC(=N)N)C(=O)N[C@H](CC(C)C)C(=O)N[C@H](CCCNC(=N)N)C(=O)N[C@@H](C(=O)NCC(=O)N[C@H](CC(C)C)C(=O)N[C@H](CCCNC(=N)N)C(=O)N[C@H](CCCCN)C(=O)N[C@H](CCCNC(=N)N)C(=O)N[C@H](CCCNC(=N)N)C(=O)N[C@H](CCCNC(=N)N)C(=O)N[C@H](CCCNC(=N)N)C(=O)N[C@H](CCCNC(=N)N)C(N)=O)C(C)C)C(C)C` [Compound 19, DANSYL-Sarcosine-l{d-norLeucine}rsvrlrvGlrkrrrrr-NH2] (Dansyl-[Sar][dL][dNle][dR][dS][dV][dR][dL][dR][dV]G[dL][dR][dK][dR][dR][dR][dR][dR]-NH2), for which, in the data set on fresh human RBCs, the “% Hemolysis (250 uM)” value was 86%.

As for “Ac-lmrsvrlrvGlrkaG: : : (cFΦR4) (Ac-[dL][dM][dR][dS][dV][dR][dL][dR][dV]G[dL][dR][dK][dA]GF[2Nal]RRRRQ; not fully specified (bridges); printed as Ac-lmrsvrlrvGlrkaG: : : (cFΦR4); also: core joined by ':::' to cyclo(FΦRRRRQ), junction not defined) [Compound 3]”, the midpoint of inhibition with SSP-25 cells, the IC50, lay at 7.3 µM.

On to “Ac-lmrsvrlrvGlrkrrrrrrrk(C6_5FAM)-NH2 (Ac-[dL][dM][dR][dS][dV][dR][dL][dR][dV]G[dL][dR][dK][dR][dR][dR][dR][dR][dR][dR][dK](C6_5FAM)-NH2; SMILES CSCC[C@@H](NC(=O)[C@@H](CC(C)C)NC(C)=O)C(=O)N[C@H](CCCNC(=N)N)C(=O)N[C@H](CO)C(=O)N[C@@H](C(=O)N[C@H](CCCNC(=N)N)C(=O)N[C@H](CC(C)C)C(=O)N[C@H](CCCNC(=N)N)C(=O)N[C@@H](C(=O)NCC(=O)N[C@H](CC(C)C)C(=O)N[C@H](CCCNC(=N)N)C(=O)N[C@H](CCCCN)C(=O)N[C@H](CCCNC(=N)N)C(=O)N[C@H](CCCNC(=N)N)C(=O)N[C@H](CCCNC(=N)N)C(=O)N[C@H](CCCNC(=N)N)C(=O)N[C@H](CCCNC(=N)N)C(=O)N[C@H](CCCNC(=N)N)C(=O)N[C@H](CCCNC(=N)N)C(=O)N[C@H](CCCCNC(=O)CCCCCNC(=O)c1ccc2c(c1)C(=O)OC21c2ccc(O)cc2Oc2cc(O)ccc21)C(N)=O)C(C)C)C(C)C) [Compound 13]”, for which 10 µM corresponded to half-maximal inhibition in the data set on SSP-25 cells (IC50).

In the case of “Ac-lmrsvrlrvGlrr-NH2 (Ac-[dL][dM][dR][dS][dV][dR][dL][dR][dV]G[dL][dR][dR]-NH2; SMILES CSCC[C@@H](NC(=O)[C@@H](CC(C)C)NC(C)=O)C(=O)N[C@H](CCCNC(=N)N)C(=O)N[C@H](CO)C(=O)N[C@@H](C(=O)N[C@H](CCCNC(=N)N)C(=O)N[C@H](CC(C)C)C(=O)N[C@H](CCCNC(=N)N)C(=O)N[C@@H](C(=O)NCC(=O)N[C@H](CC(C)C)C(=O)N[C@H](CCCNC(=N)N)C(=O)N[C@H](CCCNC(=N)N)C(N)=O)C(C)C)C(C)C) [Compound 4]”, the IC50 (in general, the concentration that inhibits the measured activity by half) with SSP-25 cells is 67 µM.

“Ac-lvrsvGlrrrrrrrr-NH2 (Ac-[dL][dV][dR][dS][dV]G[dL][dR][dR][dR][dR][dR][dR][dR][dR]-NH2; SMILES CC(=O)N[C@H](CC(C)C)C(=O)N[C@@H](C(=O)N[C@H](CCCNC(=N)N)C(=O)N[C@H](CO)C(=O)N[C@@H](C(=O)NCC(=O)N[C@H](CC(C)C)C(=O)N[C@H](CCCNC(=N)N)C(=O)N[C@H](CCCNC(=N)N)C(=O)N[C@H](CCCNC(=N)N)C(=O)N[C@H](CCCNC(=N)N)C(=O)N[C@H](CCCNC(=N)N)C(=O)N[C@H](CCCNC(=N)N)C(=O)N[C@H](CCCNC(=N)N)C(=O)N[C@H](CCCNC(=N)N)C(N)=O)C(C)C)C(C)C) [Compound 5]” returned an IC50 with SSP-25 cells of 35 µM.

As for “Ac-l{d-norLeucine}rGvrlrvGlrkrrrrGy-NH2 (Ac-[dL][dNle][dR]G[dV][dR][dL][dR][dV]G[dL][dR][dK][dR][dR][dR][dR]G[dY]-NH2; SMILES CCCC[C@@H](NC(=O)[C@@H](CC(C)C)NC(C)=O)C(=O)N[C@H](CCCNC(=N)N)C(=O)NCC(=O)N[C@@H](C(=O)N[C@H](CCCNC(=N)N)C(=O)N[C@H](CC(C)C)C(=O)N[C@H](CCCNC(=N)N)C(=O)N[C@@H](C(=O)NCC(=O)N[C@H](CC(C)C)C(=O)N[C@H](CCCNC(=N)N)C(=O)N[C@H](CCCCN)C(=O)N[C@H](CCCNC(=N)N)C(=O)N[C@H](CCCNC(=N)N)C(=O)N[C@H](CCCNC(=N)N)C(=O)N[C@H](CCCNC(=N)N)C(=O)NCC(=O)N[C@H](Cc1ccc(O)cc1)C(N)=O)C(C)C)C(C)C) [Compound 11]”, it took 9 µM to reach half-maximal inhibition with SSP-25 cells (IC50).

Regarding “Ac-l{d-norLeucine}rGvrlrvGlrkrrrrrGΦ-NH2 (Ac-[dL][dNle][dR]G[dV][dR][dL][dR][dV]G[dL][dR][dK][dR][dR][dR][dR][dR]G[2Nal]-NH2; SMILES CCCC[C@@H](NC(=O)[C@@H](CC(C)C)NC(C)=O)C(=O)N[C@H](CCCNC(=N)N)C(=O)NCC(=O)N[C@@H](C(=O)N[C@H](CCCNC(=N)N)C(=O)N[C@H](CC(C)C)C(=O)N[C@H](CCCNC(=N)N)C(=O)N[C@@H](C(=O)NCC(=O)N[C@H](CC(C)C)C(=O)N[C@H](CCCNC(=N)N)C(=O)N[C@H](CCCCN)C(=O)N[C@H](CCCNC(=N)N)C(=O)N[C@H](CCCNC(=N)N)C(=O)N[C@H](CCCNC(=N)N)C(=O)N[C@H](CCCNC(=N)N)C(=O)N[C@H](CCCNC(=N)N)C(=O)NCC(=O)N[C@@H](Cc1ccc2ccccc2c1)C(N)=O)C(C)C)C(C)C) [Compound 12]”, in the data set on SSP-25 cells, 17 µM corresponded to half-maximal inhibition (IC50).

“Ac-l{d-norLeucine}rGvrlrvGlrkrrrrrrr-NH2 (Ac-[dL][dNle][dR]G[dV][dR][dL][dR][dV]G[dL][dR][dK][dR][dR][dR][dR][dR][dR][dR]-NH2; SMILES CCCC[C@@H](NC(=O)[C@@H](CC(C)C)NC(C)=O)C(=O)N[C@H](CCCNC(=N)N)C(=O)NCC(=O)N[C@@H](C(=O)N[C@H](CCCNC(=N)N)C(=O)N[C@H](CC(C)C)C(=O)N[C@H](CCCNC(=N)N)C(=O)N[C@@H](C(=O)NCC(=O)N[C@H](CC(C)C)C(=O)N[C@H](CCCNC(=N)N)C(=O)N[C@H](CCCCN)C(=O)N[C@H](CCCNC(=N)N)C(=O)N[C@H](CCCNC(=N)N)C(=O)N[C@H](CCCNC(=N)N)C(=O)N[C@H](CCCNC(=N)N)C(=O)N[C@H](CCCNC(=N)N)C(=O)N[C@H](CCCNC(=N)N)C(=O)N[C@H](CCCNC(=N)N)C(N)=O)C(C)C)C(C)C) [Compound 10]” returned an IC50 in the data set on SSP-25 cells of 13 µM.

As to “Ac-l{d-norLeucine}rsrrlvrGlrkrrrrrGΦ-NH2 [Compound 14]”, 3500 µM corresponded to half-maximal inhibition with SSP-25 cells (IC50). This IC50 is about 270-fold higher than that of the compound before.

Compound “Ac-l{d-norLeucine}rsvrlr[d-norLeucine]GlrkrrrrrGΦ-NH2 (Ac-[dL][dNle][dR][dS][dV][dR][dL][dR][dNle]G[dL][dR][dK][dR][dR][dR][dR][dR]G[2Nal]-NH2; SMILES CCCC[C@@H](NC(=O)[C@@H](CCCNC(=N)N)NC(=O)[C@@H](CC(C)C)NC(=O)[C@@H](CCCNC(=N)N)NC(=O)[C@H](NC(=O)[C@@H](CO)NC(=O)[C@@H](CCCNC(=N)N)NC(=O)[C@@H](CCCC)NC(=O)[C@@H](CC(C)C)NC(C)=O)C(C)C)C(=O)NCC(=O)N[C@H](CC(C)C)C(=O)N[C@H](CCCNC(=N)N)C(=O)N[C@H](CCCCN)C(=O)N[C@H](CCCNC(=N)N)C(=O)N[C@H](CCCNC(=N)N)C(=O)N[C@H](CCCNC(=N)N)C(=O)N[C@H](CCCNC(=N)N)C(=O)N[C@H](CCCNC(=N)N)C(=O)NCC(=O)N[C@@H](Cc1ccc2ccccc2c1)C(N)=O) [Compound 16]” had an IC50 with SSP-25 cells of 43 µM. This IC50 is about 81-fold lower than that of the compound before.

In the case of “Ac-l{d-norLeucine}rsvrlrvGlrkrrrrrrr-NH2 (Ac-[dL][dNle][dR][dS][dV][dR][dL][dR][dV]G[dL][dR][dK][dR][dR][dR][dR][dR][dR][dR]-NH2; SMILES CCCC[C@@H](NC(=O)[C@@H](CC(C)C)NC(C)=O)C(=O)N[C@H](CCCNC(=N)N)C(=O)N[C@H](CO)C(=O)N[C@@H](C(=O)N[C@H](CCCNC(=N)N)C(=O)N[C@H](CC(C)C)C(=O)N[C@H](CCCNC(=N)N)C(=O)N[C@@H](C(=O)NCC(=O)N[C@H](CC(C)C)C(=O)N[C@H](CCCNC(=N)N)C(=O)N[C@H](CCCCN)C(=O)N[C@H](CCCNC(=N)N)C(=O)N[C@H](CCCNC(=N)N)C(=O)N[C@H](CCCNC(=N)N)C(=O)N[C@H](CCCNC(=N)N)C(=O)N[C@H](CCCNC(=N)N)C(=O)N[C@H](CCCNC(=N)N)C(=O)N[C@H](CCCNC(=N)N)C(N)=O)C(C)C)C(C)C) [Compound 9]”, 20 µM corresponded to half-maximal inhibition in the data set with SSP-25 cells (IC50).

Compound “Ac-rrrrrraGphlrkvralrslGlrlaq-NH2 (Ac-[dR][dR][dR][dR][dR][dR][dA]G[dP][dH][dL][dR][dK][dV][dR][dA][dL][dR][dS][dL]G[dL][dR][dL][dA][dQ]-NH2; SMILES CC(=O)N[C@H](CCCNC(=N)N)C(=O)N[C@H](CCCNC(=N)N)C(=O)N[C@H](CCCNC(=N)N)C(=O)N[C@H](CCCNC(=N)N)C(=O)N[C@H](CCCNC(=N)N)C(=O)N[C@H](CCCNC(=N)N)C(=O)N[C@H](C)C(=O)NCC(=O)N1CCC[C@@H]1C(=O)N[C@H](Cc1c[nH]cn1)C(=O)N[C@H](CC(C)C)C(=O)N[C@H](CCCNC(=N)N)C(=O)N[C@H](CCCCN)C(=O)N[C@@H](C(=O)N[C@H](CCCNC(=N)N)C(=O)N[C@H](C)C(=O)N[C@H](CC(C)C)C(=O)N[C@H](CCCNC(=N)N)C(=O)N[C@H](CO)C(=O)N[C@H](CC(C)C)C(=O)NCC(=O)N[C@H](CC(C)C)C(=O)N[C@H](CCCNC(=N)N)C(=O)N[C@H](CC(C)C)C(=O)N[C@H](C)C(=O)N[C@H](CCC(N)=O)C(N)=O)C(C)C) [Compound 6]” showed an IC50 in the data set on SSP-25 cells of 417 µM.
